Measured values reported in patent US5118392A, “Separation of trichloroethylene from a butyl alcohol by extractive distillation” (priority 1991, dated 1992).

What was measured:
Format in all cases: physicochemical
[1] = Vapor-liquid equilibrium still, trichloroethylene-n-butanol azeotrope with extractive distillation agent
[2] = Glass perforated plate rectification column (7.3 theoretical plates), trichloroethylene / n-butanol; details: 2 hrs
Excerpt: Dimethylsulfoxide gave a relative volatility of 1.28 after two hours of operation.
A solution comprising 300 grams of trichloroethylene and 15 grams of n-butanol was placed in the stillpot of a 7.3 theoretical plate glass perforated plate rectification column. […] After two hours operation, overhead and bottoms samples were collected and analysed. The overhead analysis was 98.2% trichloroethylene, 1.8% n-butanol and the bottoms analysis was 90.1% trichloroethylene, 9.9% n-butanol. This gives an average relative volatility of 1.28 for each theoretical plate.

[3] = as above; details: 1 hr
[4] = Example 1, refluxed seven hours

C[S+](C)[O-] [Dimethylsulfoxide]
liquid composition, n-butanol [1, 4]: 2.9% | liquid composition, trichloroethylene [1, 4]: 97.1% | vapor composition, n-butanol [1, 4]: 2.3% | vapor composition, trichloroethylene [1, 4]: 97.7% | Relative Volatility ([1]; Example 1: 60 g azeotrope, 30 g agent, refluxed seven hours): 1.25 | Relative Volatility ([1]; trichloroethylene from n-butanol, Table 2): 1.3 | Relative Volatility (average, per theoretical plate) [2]: 1.28 | Weight % C2 H Cl3 ([2]; bottoms): 90.1% | Weight % n-Butanol ([2]; bottoms): 9.9% | Weight % C2 H Cl3 ([2]; overhead): 98.2% | Weight % n-Butanol ([2]; overhead): 1.8% | Relative Volatility (per theoretical plate) [3]: 1.22 | Weight % C2 H Cl3 ([3]; bottoms): 88.2% | Weight % n-Butanol ([3]; bottoms): 11.8% | Weight % C2 H Cl3 ([3]; overhead): 96.9% | Weight % n-Butanol ([3]; overhead): 3.1%
